From patent US8431702B2, “Therapeutically useful substituted hydropyrido [3,2,1-ij] quinoline compounds” (Allergan, Inc., priority 2008, dated 2013)
Read-outs that look alike come from different tables or passages of the source.

Target: T1, human S1P3 receptor (Homo sapiens, UniProt Q99500)
T1 construct: expressed in transfected cells
Assay: FLIPR calcium (Fluo-4) assay for activation or block of activation of human S1P3 receptor in T24 cells
Type: cell-based
Experimental: The compounds of the invention are assessed for their ability to activate or block activation of the human S1P3 receptor in T24 cells stably expressing the human S1P3 receptor using the method described in paragraph [0067] of United States Patent Application Publication No. 20070232682, which published on Oct. 4, 2007, which is hereby incorporated by reference in its entirety.
Ten thousands cells/well are plated into 384-well poly-D-lysine coated plates one day prior to use. The growth media for the S1P3 receptor expressing cell line is McCoy's 5A medium supplemented with 10% charcoal-treated fetal bovine serum (FBS), 1% antibiotic-antimycotic and 400 μg/ml geneticin. On the day of the experiment, the cells are washed twice with Hank's Balanced Salt Solution supplemented with 20 mM HEPES (HBSS/Hepes buffer). The cells are then dye loaded with 2 μM Fluo-4 diluted in the HBSS/Hepes buffer with 1.25 mM Probenecid and incubated at 37° C. for 40 minutes. Extracellular dye is removed by washing the cell plates four times prior to placing the plates in the FLIPR (Fluorometric Imaging Plate Reader, Molecular Devices). Ligands are diluted in HBSS/Hepes buffer and prepared in 384-well microplates. The positive control, Sphingosine-1-phosphate (S1P), is diluted in HBSS/Hepes buffer with 4 mg/ml fatty acid free bovine serum albumin. The FLIPR transfers 12.5 μl from the ligand microplate to the cell plate and takes fluorescent measurements for 75 seconds, taking readings every second, and then for 2.5 minutes, taking readings every 10 seconds. Compounds are tested over the concentration range of 0.61 nM to 10,000 nM. Data for calcium ion (Ca^+2) responses are obtained in arbitrary fluorescence units and not translated into Ca^+2 concentrations. IC50 values (nM) are determined through a […] analysis using the Levenburg Marquardt algorithm.

[1] = T24 cells stably expressing the human S1P3 receptor, tested over 0.61 nM to 10,000 nM
[2] = T24 cells stably expressing the human S1P3 receptor, tested over 0.61 nM to 10,000 nM, read-out: S1P3 IC50

T1 sequence (Q99500 whole entry): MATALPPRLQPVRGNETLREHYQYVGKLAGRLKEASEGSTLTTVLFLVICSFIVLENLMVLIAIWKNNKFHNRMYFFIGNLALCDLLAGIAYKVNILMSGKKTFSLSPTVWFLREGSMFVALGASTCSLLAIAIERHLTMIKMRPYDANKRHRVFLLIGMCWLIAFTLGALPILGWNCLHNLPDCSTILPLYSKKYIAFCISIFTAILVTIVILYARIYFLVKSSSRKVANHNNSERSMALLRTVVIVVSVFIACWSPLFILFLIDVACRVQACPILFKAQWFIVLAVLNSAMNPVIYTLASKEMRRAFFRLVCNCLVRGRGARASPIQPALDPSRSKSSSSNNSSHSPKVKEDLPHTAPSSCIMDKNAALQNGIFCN

Structure (SMILES) | S1P3 % Inhibition [1] [%] | IC50 [2] [nM] | IC50 [nM]
O=C(Nc1cc2c3c(c1)C(c1ccc(F)cc1)CCN3CCC2c1ccc(F)cc1)OCCF (centres unmarked) [Compound 067] | 98 | 8 | –
CCOC(=O)Nc1cc2c3c(c1)C(c1cccc(F)c1)CCN3CCC2c1cccc(F)c1 (centres unmarked) [Compound 093, Ethyl 1,7-bis(3-fluorophenyl)-1,2,3,5,6,7-hexahydropyrido[3,2,1-ij]quinolin-9-ylcarbamate] | 102 | – | –
CCCOC(=O)Nc1cc2c3c(c1)C(c1cccc(F)c1)CCN3CCC2c1cccc(F)c1 (centres unmarked) [Compound 094, Propyl 1,7-bis(3-fluorophenyl)-1,2,3,5,6,7-hexahydropyrido[3,2,1-ij]quinolin-9-ylcarbamate] | 101 | – | –
CC(C)(C)NC(=O)Nc1cc2c3c(c1)C(c1ccccc1)CCN3CCC2c1ccccc1 (centres unmarked) [Compound 148, 1-tert-butyl-3-(1,7-diphenyl-1,2,3,5,6,7-hexahydropyrido[3,2,1-ij]quinolin-9-yl)urea] | 101 | – | –
CCCCOC(=O)Nc1cc2c3c(c1)C(c1cccc(F)c1)CCN3CCC2c1cccc(F)c1 (centres unmarked) [Compound 202, Butyl 1,7-bis(3-fluorophenyl)-1,2,3,5,6,7-hexahydropyrido[3,2,1-ij]quinolin-9-ylcarbamate] | 98 | – | –
CCNC(=O)Nc1cc2c3c(c1)[C@](C)(c1ccccc1)CCN3CC[C@@]2(C)c1ccccc1 [Compound 249, 1-((1S,7S)-1,7-dimethyl-1,7-diphenyl-1,2,3,5,6,7-hexahydropyrido[3,2,1-ij]quinolin-9-yl)-3-ethylurea] | 100 | 194 | –
CCCNC(=O)Nc1cc2c3c(c1)[C@](C)(c1ccccc1)CCN3CC[C@@]2(C)c1ccccc1 [Compound 250, 1-((1S,7S)-1,7-dimethyl-1,7-diphenyl-1,2,3,5,6,7-hexahydropyrido[3,2,1-ij]quinolin-9-yl)-3-propylurea] | 100 | 523 | –
CCCNC(=S)Nc1cc2c3c(c1)C(c1ccccc1)CCN3CCC2c1ccccc1 (centres unmarked) [Compound 255, 1-(1,7-diphenyl-1,2,3,5,6,7-hexahydropyrido[3,2,1-ij]quinolin-9-yl)-3-propylthiourea] | 99 | – | –
CCCCCCNC(=S)Nc1cc2c3c(c1)C(c1ccccc1)CCN3CCC2c1ccccc1 (centres unmarked) [Compound 256, 1-(1,7-diphenyl-1,2,3,5,6,7-hexahydropyrido[3,2,1-ij]quinolin-9-yl)-3-hexylthiourea] | 100 | – | –
O=C(NCc1ccoc1)Nc1cc2c3c(c1)C(c1ccccc1)CCN3CCC2c1ccccc1 (centres unmarked) [Compound 258, 1-(1,7-diphenyl-1,2,3,5,6,7-hexahydropyrido[3,2,1-ij]quinolin-9-yl)-3-(furan-3-ylmethyl)urea] | 100 | – | –
COC(=O)Nc1cc2c3c(c1)C(c1ccc(F)cc1)CCN3CCC2c1ccc(F)cc1 (centres unmarked) [Compound 268] | 98 | 5 | –
O=C(Nc1cc2c3c(c1)C(c1ccccc1)CCN3CCC2c1ccccc1)Oc1ccccc1 (centres unmarked) [Compound 277, Phenyl 1,7-diphenyl-1,2,3,5,6,7-hexahydropyrido[3,2,1-ij]quinolin-9-ylcarbamate] | 91 | – | –
O=C(Nc1cc2c3c(c1)C(c1ccccc1)CCN3CCC2c1ccccc1)OCc1ccccc1 (centres unmarked) [Compound 278, Benzyl 1,7-diphenyl-1,2,3,5,6,7-hexahydropyrido[3,2,1-ij]quinolin-9-ylcarbamate] | 101 | – | –
CCCOC(=O)Nc1cc2c3c(c1)[C@@](C)(c1ccccc1)CCN3CC[C@@]2(C)c1ccccc1 [Compound 355, Propyl (1R,7S)-1,7-dimethyl-1,7-diphenyl-1,2,3,5,6,7-hexahydropyrido[3,2,1-ij]quinolin-9-ylcarbamate] | 98 | 316 | –
CN(C)C(=O)Nc1cc2c3c(c1)C(c1ccccc1)CCN3CCC2c1ccccc1 (centres unmarked) [Compound 405, 3-(1,7-diphenyl-1,2,3,5,6,7-hexahydropyrido[3,2,1-ij]quinolin-9-yl)-1,1-dimethylurea] | 98 | – | –
CCCNC(=O)c1cc2c3c(c1)C(c1ccccc1)CCN3CCC2c1ccccc1 (centres unmarked) [Compound 409, 1,7-diphenyl-N-propyl-1,2,3,5,6,7-hexahydropyrido[3,2,1-ij]quinoline-9-carboxamide] | 89 | 874 | –
CCCCNC(=O)c1cc2c3c(c1)C(c1ccccc1)CCN3CCC2c1ccccc1 (centres unmarked) [Compound 481, N-butyl-1,7-diphenyl-1,2,3,5,6,7-hexahydropyrido[3,2,1-ij]quinoline-9-carboxamide] | 98 | 210 | –
CCCCNC(=O)Nc1cc2c3c(c1)C(c1ccccc1)CCN3CCC2c1ccccc1 (centres unmarked) [Compound 485, 1-Butyl-3-(1,7-diphenyl-1,2,3,5,6,7-hexahydropyrido[3,2,1-ij]quinolin-9-yl)urea] | 100 | – | –
CCCCCNC(=O)Nc1cc2c3c(c1)C(c1ccccc1)CCN3CCC2c1ccccc1 (centres unmarked) [Compound 486, 1-(1,7-diphenyl-1,2,3,5,6,7-hexahydropyrido[3,2,1-ij]quinolin-9-yl)-3-pentylurea] | 100 | 82 | –
CCCCCCNC(=O)Nc1cc2c3c(c1)C(c1ccccc1)CCN3CCC2c1ccccc1 (centres unmarked) [Compound 487, 1-(1,7-diphenyl-1,2,3,5,6,7-hexahydropyrido[3,2,1-ij]quinolin-9-yl)-3-hexylurea] | 100 | – | –
CC(C)(C)NC(=O)Nc1cc2c3c(c1)[C@@](C)(c1ccccc1)CCN3CC[C@@]2(C)c1ccccc1 [Compound 580, 1-t-butyl-3-((1R,7S)-1,7-dimethyl-1,7-diphenyl-1,2,3,5,6,7-hexahydropyrido[3,2,1-ij]quinolin-9-yl)urea] | 99 | – | 62
CC(C)(C)NC(=O)Nc1cc2c3c(c1)[C@](C)(c1ccccc1)CCN3CC[C@@]2(C)c1ccccc1 [Compound 581, 1-t-butyl-3-((1S,7S)-1,7-dimethyl-1,7-diphenyl-1,2,3,5,6,7-hexahydropyrido[3,2,1-ij]quinolin-9-yl)urea] | 98 | 349 | –
CSC(=O)Nc1cc2c3c(c1)[C@@](C)(c1ccccc1)CCN3CC[C@@]2(C)c1ccccc1 [Compound 582, S-methyl (1R,7S)-1,7-dimethyl-1,7-diphenyl-1,2,3,5,6,7-hexahydropyrido[3,2,1-ij]quinolin-9-ylcarbamothioate] | 99 | – | 4

Now from value to molecule, other results behind:

S1P3 % Inhibition [1] [%] | IC50 [2] [nM] | Structure (SMILES) | IC50 [nM]
102 | – | O=C(Nc1cc2c3c(c1)C(c1ccccc1)CCN3CCC2c1ccccc1)OCCF (centres unmarked) [Compound 095, 2-fluoroethyl 1,7-diphenyl-1,2,3,5,6,7-hexahydropyrido[3,2,1-ij]quinolin-9-ylcarbamate] | –
99 | – | O=C(Nc1cc2c3c(c1)C(c1ccccc1)CCN3CCC2c1ccccc1)OCCCCl (centres unmarked) [Compound 205, 3-chloropropyl 1,7-diphenyl-1,2,3,5,6,7-hexahydropyrido[3,2,1-ij]quinolin-9-ylcarbamate] | –
100 | – | O=C(Nc1cc2c3c(c1)C(c1ccccc1)CCN3CCC2c1ccccc1)OCCCCCl (centres unmarked) [Compound 206, 4-chlorobutyl 1,7-diphenyl-1,2,3,5,6,7-hexahydropyrido[3,2,1-ij]quinolin-9-ylcarbamate] | –
102 | – | COC(=O)Nc1cc2c3c(c1)C(c1ccccc1)CCN3CCC2c1ccccc1 (centres unmarked) [Compound 272, methyl 1,7-diphenyl-1,2,3,5,6,7-hexahydropyrido[3,2,1-ij]quinolin-9-ylcarbamate] | –
101 | – | CCOC(=O)Nc1cc2c3c(c1)C(c1ccccc1)CCN3CCC2c1ccccc1 (centres unmarked) [Compound 273, Ethyl 1,7-diphenyl-1,2,3,5,6,7-hexahydropyrido[3,2,1-ij]quinolin-9-ylcarbamate] | –
100 | – | CC(C)COC(=O)Nc1cc2c3c(c1)C(c1ccccc1)CCN3CCC2c1ccccc1 (centres unmarked) [Compound 274, Isobutyl 1,7-diphenyl-1,2,3,5,6,7-hexahydropyrido[3,2,1-ij]quinolin-9-ylcarbamate] | –
100 | – | CCCOC(=O)Nc1cc2c3c(c1)C(c1ccccc1)CCN3CCC2c1ccccc1 (centres unmarked) [Compound 275, Propyl 1,7-diphenyl-1,2,3,5,6,7-hexahydropyrido[3,2,1-ij]quinolin-9-ylcarbamate] | –
101 | – | CCCCOC(=O)Nc1cc2c3c(c1)C(c1ccccc1)CCN3CCC2c1ccccc1 (centres unmarked) [Compound 276, Butyl 1,7-diphenyl-1,2,3,5,6,7-hexahydropyrido[3,2,1-ij]quinolin-9-ylcarbamate] | –
97 | – | C#CCOC(=O)Nc1cc2c3c(c1)C(c1ccccc1)CCN3CCC2c1ccccc1 (centres unmarked) [Compound 352, Prop-2-ynyl 1,7-diphenyl-1,2,3,5,6,7-hexahydropyrido[3,2,1-ij]quinolin-9-ylcarbamate] | –
101 | – | CCNC(=O)Nc1cc2c3c(c1)C(c1ccccc1)CCN3CCC2c1ccccc1 (centres unmarked) [Compound 484, 1-(1,7-diphenyl-1,2,3,5,6,7-hexahydropyrido[3,2,1-ij]quinolin-9-yl)-3-ethylurea] | –
